Common to all, as to type: cell-based
In assay [1] the test system is Mannheimia haemolytica MH 6357 (M7/2, reference strain, cattle infection strain). Put plainly: MIC, broth-microdilution (CLSI VET01-A4), strain MH 6357. The note with it: Mannheimia haemolytica strain MH 6357, broth-microdilution; unit assumed. The procedure, abridged: (§1)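 Growth inhibition is scored visually on a doubling dilution series. The reported MIC corresponds to the lowest concentration free of turbidity, with results assessed under CLSI VET01-S3.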

The test system of assay [2] is Mannheimia haemolytica MH 6374 (ATCC 33396, reference strain). Put plainly: MIC, broth-microdilution (CLSI VET01-A4), strain MH 6374. The note with it: Mannheimia haemolytica strain MH 6374, broth-microdilution; unit assumed. Summed up: as §1
Assay [3] concerns Mannheimia haemolytica MH 10720 (154, BRD field isolate). Put plainly: MIC, broth-microdilution (CLSI VET01-A4), strain MH 10720. The note with it: Mannheimia haemolytica strain MH 10720, broth-microdilution; unit assumed. The procedure, abridged: as §1
Assay [4] concerns Mannheimia haemolytica MH 12587 (1071, BRD field isolate, macrolide-resistance: erm+, E+). Put plainly: MIC, broth-microdilution (CLSI VET01-A4), strain MH 12587. The settings on record: Mannheimia haemolytica strain MH 12587, broth-microdilution; unit assumed. The procedure, abridged: as §1
For assay [5], the system named is Mannheimia haemolytica MH 13065 (XB0446-6003.9, BRD field isolate). The assay is described as follows: MIC, broth-microdilution (CLSI VET01-A4), strain MH 13065. The note with it: Mannheimia haemolytica strain MH 13065, broth-microdilution; unit assumed. The procedure, abridged: as §1
Assay [6] concerns Mannheimia haemolytica MH 13093 (XB0472-6014.1, BRD field isolate). The assay is described as follows: MIC, broth-microdilution (CLSI VET01-A4), strain MH 13093. The settings on record: Mannheimia haemolytica strain MH 13093, broth-microdilution; unit assumed. The procedure, abridged:
as §1

Assay [7] concerns Pasteurella multocida PM 6267 (P 2225 (L386), reference strain, mouse infection strain). Put plainly: MIC, broth-microdilution (CLSI VET01-A4), strain PM 6267. The note with it: Pasteurella multocida strain PM 6267, broth-microdilution; unit assumed. The procedure, abridged: as §1
Assay [8] relates to Pasteurella multocida PM 6391 (ATCC 43137, reference strain). Put plainly: MIC, broth-microdilution (CLSI VET01-A4), strain PM 6391. The note with it: Pasteurella multocida strain PM 6391, broth-microdilution; unit assumed. Summed up:
as §1

Assay [9] concerns Pasteurella multocida PM 10775 (080130003051, BRD field isolate). The assay is described as follows: MIC, broth-microdilution (CLSI VET01-A4), strain PM 10775. The settings on record: Pasteurella multocida strain PM 10775, broth-microdilution; unit assumed. Summed up:
as §1

Assay [10] has as its system Pasteurella multocida PM 12080 (IV102277-0093, BRD field isolate). Put plainly: MIC, broth-microdilution (CLSI VET01-A4), strain PM 12080. The note with it: Pasteurella multocida strain PM 12080, broth-microdilution; unit assumed. The procedure, abridged: as §1

Each structure is given as a SMILES string. ≈ marks a conversion by molar mass, not a printed value. A value given as a limit tells only on which side of the number the result lay.

`CC(C)(O)[C@H](NC(=O)c1ccc(C#Cc2ccc(CN3CCOCC3)s2)cc1)C(=O)NO` [Compound 293]: the MIC MH 6357 in assay [1] amounted to 0.4 µg/mL (≈ 0.874 µM). The compound also yielded an MIC MH 6374 in assay [2] of 0.8 µg/mL (≈ 1.75 µM). This compound displayed an MIC MH 10720 in [3] not above 0.1 µg/mL. The same compound registered an MIC MH 12587 in assay [4] of 0.8 µg/mL (≈ 1.75 µM). For the same compound, in assay [5], the MIC MH 13065 was 0.4 µg/mL (≈ 0.874 µM). This compound also registered an MIC MH 13093 in assay [6] of 0.8 µg/mL (≈ 1.75 µM). The same compound yielded an MIC PM 6267 in assay [7] of 1.6 µg/mL (≈ 3.5 µM). In addition, in assay [8], the MIC PM 6391 worked out at 0.2 µg/mL (≈ 0.437 µM). Further, in [9], the MIC PM 10775 was not above 0.1 µg/mL. The compound further had an MIC PM 12080 in assay [10] not above 0.1 µg/mL.
Regarding `CC(C)(O)[C@H](NC(=O)c1ccc(C#Cc2ccc(CNCc3ccccc3)s2)cc1)C(=O)NO` [Compound 294], the MIC MH 6357 in assay [1] is not above 0.1 µg/mL. The MIC MH 6374 in assay [2] stood at 0.2 µg/mL (≈ 0.419 µM). Further, the MIC MH 10720 in assay [3] was not above 0.1 µg/mL. The MIC MH 12587 in assay [4] stood at 0.4 µg/mL (≈ 0.838 µM). The compound also showed an MIC MH 13065 in assay [5] not above 0.1 µg/mL. The MIC MH 13093 in [6] came to 0.4 µg/mL (≈ 0.838 µM). The MIC PM 6267 in [7] amounted to 0.8 µg/mL (≈ 1.68 µM). The MIC PM 6391 in assay [8] stood at 0.2 µg/mL (≈ 0.419 µM). In [9], this compound registered an MIC PM 10775 not above 0.1 µg/mL. The compound further yielded an MIC PM 12080 in [10] not above 0.1 µg/mL.
In turn, `COc1ccc(CNCc2ccc(C#Cc3ccc(C(=O)N[C@H](C(=O)NO)C(C)(C)O)cc3)s2)cc1` [Compound 295] yielded an MIC MH 6357 in [1] not above 0.1 µg/mL. Further, in assay [2], the MIC MH 6374 was found to be 0.4 µg/mL (≈ 0.788 µM). This compound also registered an MIC MH 10720 in assay [3] not above 0.1 µg/mL. For the same compound, the MIC MH 12587 in assay [4] worked out at 0.8 µg/mL (≈ 1.58 µM). In assay [5], this compound gave an MIC MH 13065 of 0.2 µg/mL (≈ 0.394 µM). The compound also registered an MIC MH 13093 in assay [6] of 0.4 µg/mL (≈ 0.788 µM). The compound also displayed an MIC PM 6267 in assay [7] of 0.8 µg/mL (≈ 1.58 µM). In assay [8], this compound showed an MIC PM 6391 of 0.4 µg/mL (≈ 0.788 µM). For the same compound, in assay [9], the MIC PM 10775 is not above 0.1 µg/mL. Also, the MIC PM 12080 in [10] was not above 0.1 µg/mL.
In [1], `CC(C)(O)[C@H](NC(=O)c1ccc(C#Cc2ccc(CNCc3cccnc3)s2)cc1)C(=O)NO` [Compound 296] came in with an MIC MH 6357 not above 0.1 µg/mL. The compound further showed an MIC MH 6374 in [2] of 0.2 µg/mL (≈ 0.418 µM). In assay [3], this compound yielded an MIC MH 10720 not above 0.1 µg/mL. In assay [4], the MIC MH 12587 was 0.4 µg/mL (≈ 0.836 µM). In assay [5], the MIC MH 13065 was not above 0.1 µg/mL. In addition, the MIC MH 13093 in assay [6] was 0.4 µg/mL (≈ 0.836 µM). This compound displayed an MIC PM 6267 in assay [7] of 0.8 µg/mL (≈ 1.67 µM). This compound also showed an MIC PM 6391 in assay [8] not above 0.1 µg/mL. Further, in assay [9], the MIC PM 10775 is not above 0.1 µg/mL. In [10], this compound came in with an MIC PM 12080 not above 0.1 µg/mL.
Take `CC(C)(O)[C@H](NC(=O)c1ccc(C#Cc2ccc(CNCc3ccccn3)s2)cc1)C(=O)NO` [Compound 297]: the MIC MH 6357 in assay [1] stood at 0.2 µg/mL (≈ 0.418 µM). This compound registered an MIC MH 6374 in [2] of 0.4 µg/mL (≈ 0.836 µM). The compound further returned an MIC MH 10720 in assay [3] not above 0.1 µg/mL. The MIC MH 12587 in assay [4] is 0.8 µg/mL (≈ 1.67 µM). In assay [5], this compound displayed an MIC MH 13065 of 0.4 µg/mL (≈ 0.836 µM). Further, the MIC MH 13093 in assay [6] was 0.4 µg/mL (≈ 0.836 µM). The compound also registered an MIC PM 6267 in assay [7] of 0.4 µg/mL (≈ 0.836 µM). The compound further returned an MIC PM 6391 in assay [8] not above 0.1 µg/mL. The MIC PM 10775 in [9] is not above 0.1 µg/mL. The compound also had an MIC PM 12080 in [10] of 0.2 µg/mL (≈ 0.418 µM).
Consider `CC(C)(O)[C@H](NC(=O)c1ccc(C#Cc2ccc(CNCc3ccco3)s2)cc1)C(=O)NO` [Compound 298], for which the MIC MH 6357 in [1] is not above 0.1 µg/mL. This compound gave an MIC MH 6374 in [2] of 0.2 µg/mL (≈ 0.428 µM). Also, in assay [3], the MIC MH 10720 was not above 0.1 µg/mL. The MIC MH 12587 in [4] amounted to 0.4 µg/mL (≈ 0.856 µM). Further, the MIC MH 13065 in assay [5] was found to be 0.2 µg/mL (≈ 0.428 µM). In addition, the MIC MH 13093 in [6] came to 0.4 µg/mL (≈ 0.856 µM). In assay [7], this compound came in with an MIC PM 6267 of 0.4 µg/mL (≈ 0.856 µM). This compound also displayed an MIC PM 6391 in assay [8] not above 0.1 µg/mL. The MIC PM 10775 in assay [9] was not above 0.1 µg/mL. The compound further showed an MIC PM 12080 in assay [10] not above 0.1 µg/mL.
Take `Cc1cnc(CNCc2ccc(C#Cc3ccc(C(=O)N[C@H](C(=O)NO)C(C)(C)O)cc3)s2)o1` [Compound 299]: the MIC MH 6357 in assay [1] turned out to be 0.2 µg/mL (≈ 0.414 µM). In assay [2], this compound returned an MIC MH 6374 of 0.4 µg/mL (≈ 0.829 µM). This compound also showed an MIC MH 10720 in assay [3] not above 0.1 µg/mL. Besides, the MIC MH 12587 in assay [4] came out at 0.8 µg/mL (≈ 1.66 µM). The MIC MH 13065 in assay [5] is 0.4 µg/mL (≈ 0.829 µM). Also, in [6], the MIC MH 13093 was 0.4 µg/mL (≈ 0.829 µM). For the same compound, the MIC PM 6267 in assay [7] was 0.4 µg/mL (≈ 0.829 µM). In assay [8], the MIC PM 6391 was not above 0.1 µg/mL. Besides, the MIC PM 10775 in assay [9] was not above 0.1 µg/mL. Further, the MIC PM 12080 in assay [10] is 0.4 µg/mL (≈ 0.829 µM).

The record behind these values is US11034650B2, “Compounds useful for treating a Mannheimia haemolytica or Histophilus somni infection” (Intervet Inc., priority 2016, dated 2021).
